According to ChEMBL document CHEMBL3882736, “Modulation microtubules diseases; antiproliferative agents; antiinflamamtory agents” (2011):

Experiments:
Tubulin (Homo sapiens) = Tubulin (Homo sapiens) (UniProt P68371+Q9H4B7+P0DPH7+P68366+Q13509+Q71U36+P04350+Q3ZCM7+P07437+P68363+Q9BQE3+Q6PEY2+Q13885+Q9BVA1+Q9BUF5); assay: Inhibition of tubulin (unknown origin) polymerization at 50 uM by turbidometric method relative to control; type: protein-complex assay
In short: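 Compound was incubated at 0° C. with microtubule protein whose origin is not stated. In cuvettes, 1 mM GTP was added and the temperature raised to 37° C. to start polymerisation, and a thermostatically controlled spectrophotometer followed absorbance at 340 nm over time. The values give inhibition of polymerisation as percent relative to control.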

[1] = Cytotoxicity against human K562 cells assessed as growth inhibition at 20 uM after 40 hrs by MTT assay relative to control; type: functional; settings: K562, 40 h, read-out: GI
In short: (§1)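 Growth inhibition was measured against control in human tumour cells taken in late log phase, each in its own medium with 10% FBS. Cells (90 µL per well, 1.1× final, 50000 to 200,000 cell/mL) were added to 10 µL of compound at 10× final in 96-well plates and incubated 40 hr at 37° C., 5% CO2. Readout used MTT for 6 hours, overnight lysis with SDS/HCl and absorbance at 590 nm.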

[2] = target: Tyrosine-protein kinase JAK2 (Homo sapiens) (UniProt O60674); assay: Inhibition of TEL-fused JAK2 kinase domain (2994 to 3914 nucleotide) (unknown origin) expressed in mouse BaF3 cells assessed as decrease in cell growth at 20 uM after 40 hrs by MTT assay relative to control; type: cell-based
[3] = Cytotoxicity against human PC3 cells assessed as growth inhibition at 20 uM after 40 hrs by MTT assay relative to control; type: functional; settings: PC-3, 40 h, read-out: GI; in short: as §1
[4] = target: T1, Tyrosine-protein kinase JAK3 (Homo sapiens) (UniProt P52333); assay: Inhibition of TEL-fused JAK3 kinase domain (2520 to 3469 nucleotide) (unknown origin) expressed in mouse BaF3 cells assessed as decrease in cell growth at 20 uM after 40 hrs by MTT assay relative to control; type: cell-based
T1 sequence (whole entry): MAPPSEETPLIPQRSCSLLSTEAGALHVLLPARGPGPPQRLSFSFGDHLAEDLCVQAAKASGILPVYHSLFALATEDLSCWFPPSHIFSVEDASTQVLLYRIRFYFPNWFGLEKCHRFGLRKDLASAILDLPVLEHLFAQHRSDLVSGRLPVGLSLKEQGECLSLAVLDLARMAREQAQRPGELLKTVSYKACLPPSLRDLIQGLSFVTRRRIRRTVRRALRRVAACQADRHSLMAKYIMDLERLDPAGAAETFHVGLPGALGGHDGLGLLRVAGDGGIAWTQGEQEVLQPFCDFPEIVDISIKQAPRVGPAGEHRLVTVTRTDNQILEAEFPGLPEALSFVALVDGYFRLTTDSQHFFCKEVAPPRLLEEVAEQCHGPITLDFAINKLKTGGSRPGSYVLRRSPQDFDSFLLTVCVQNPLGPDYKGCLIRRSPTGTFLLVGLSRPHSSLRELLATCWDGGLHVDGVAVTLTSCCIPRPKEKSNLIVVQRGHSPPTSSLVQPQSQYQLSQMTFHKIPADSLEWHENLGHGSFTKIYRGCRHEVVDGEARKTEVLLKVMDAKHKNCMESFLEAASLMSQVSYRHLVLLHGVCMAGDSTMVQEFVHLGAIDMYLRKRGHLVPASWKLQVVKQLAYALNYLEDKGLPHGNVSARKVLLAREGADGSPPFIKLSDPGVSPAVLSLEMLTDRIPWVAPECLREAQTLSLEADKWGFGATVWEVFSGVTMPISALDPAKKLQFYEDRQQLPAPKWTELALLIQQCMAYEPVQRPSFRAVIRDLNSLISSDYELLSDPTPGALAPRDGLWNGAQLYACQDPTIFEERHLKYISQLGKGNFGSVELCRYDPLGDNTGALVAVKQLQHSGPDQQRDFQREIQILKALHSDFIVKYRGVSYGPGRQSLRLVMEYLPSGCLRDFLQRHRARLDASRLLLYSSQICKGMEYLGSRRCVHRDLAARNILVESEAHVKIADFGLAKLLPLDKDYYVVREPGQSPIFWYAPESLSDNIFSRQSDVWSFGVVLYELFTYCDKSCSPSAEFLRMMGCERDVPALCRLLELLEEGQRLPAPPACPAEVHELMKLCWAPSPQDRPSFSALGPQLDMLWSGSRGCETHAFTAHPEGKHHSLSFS

[5] = Cytotoxicity against human DU145 cells assessed as growth inhibition at 20 uM after 40 hrs by MTT assay relative to control; type: functional; settings: DU-145, 40 h, read-out: GI; in short: as §1

Chain of Tyrosine-protein kinase JAK2 (Homo sapiens) (O60674 whole entry, the tested form may be a part): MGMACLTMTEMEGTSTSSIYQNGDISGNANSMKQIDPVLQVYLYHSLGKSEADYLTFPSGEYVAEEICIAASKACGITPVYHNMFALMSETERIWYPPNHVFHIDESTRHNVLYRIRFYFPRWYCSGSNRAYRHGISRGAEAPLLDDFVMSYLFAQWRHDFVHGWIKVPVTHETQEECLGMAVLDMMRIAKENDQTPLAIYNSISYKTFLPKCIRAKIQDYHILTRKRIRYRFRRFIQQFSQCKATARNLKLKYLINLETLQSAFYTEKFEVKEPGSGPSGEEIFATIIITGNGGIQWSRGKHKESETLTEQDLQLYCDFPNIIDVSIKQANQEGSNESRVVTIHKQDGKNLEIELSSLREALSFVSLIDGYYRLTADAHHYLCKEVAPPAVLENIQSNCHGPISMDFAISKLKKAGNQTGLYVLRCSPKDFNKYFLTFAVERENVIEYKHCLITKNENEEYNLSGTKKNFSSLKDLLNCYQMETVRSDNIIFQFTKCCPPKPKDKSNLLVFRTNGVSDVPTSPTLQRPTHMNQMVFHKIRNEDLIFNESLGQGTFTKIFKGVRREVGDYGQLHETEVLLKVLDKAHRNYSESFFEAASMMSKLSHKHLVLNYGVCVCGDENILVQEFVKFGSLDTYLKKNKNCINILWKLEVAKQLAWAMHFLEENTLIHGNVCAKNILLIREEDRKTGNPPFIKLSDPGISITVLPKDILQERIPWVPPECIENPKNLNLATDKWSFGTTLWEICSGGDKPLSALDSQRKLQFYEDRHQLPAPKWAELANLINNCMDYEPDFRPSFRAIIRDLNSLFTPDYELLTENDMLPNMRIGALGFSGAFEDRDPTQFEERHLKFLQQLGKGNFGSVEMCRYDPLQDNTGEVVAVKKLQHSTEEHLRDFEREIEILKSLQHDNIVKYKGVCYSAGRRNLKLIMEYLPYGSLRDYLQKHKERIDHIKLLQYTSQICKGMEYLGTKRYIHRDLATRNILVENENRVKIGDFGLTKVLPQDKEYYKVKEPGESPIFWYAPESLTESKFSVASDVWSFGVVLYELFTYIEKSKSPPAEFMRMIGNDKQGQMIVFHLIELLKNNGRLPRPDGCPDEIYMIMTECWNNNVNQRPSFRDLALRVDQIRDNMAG

CCC[C@H](Nc1cncc(-c2ccc(NC(=O)NC)c(OC)c2)n1)c1ccccn1
> 50%: inhibition (Tubulin (Homo sapiens)) | inhibition of growth at 20 µM [1] | inhibition [2] | inhibition of growth at 20 µM [3] | inhibition [4] | inhibition of growth at 20 µM [5]
